Measurements as given in paper PMC3812281, “Synthetic Oxoisoaporphine Alkaloids: In Vitro, In Vivo and In Silico Assessment of Antileishmanial Activities” (PLoS ONE, 2013).

target: T1, acetylcholinesterase (AChE) (Homo sapiens, UniProt P22303); test: Ellman assay, percent inhibition at […]; type: biochemical
T1 construct: recombinant acetylcholinesterase (AChE) expressed in HEK 293 cells
T1 sequence (P22303 32-614): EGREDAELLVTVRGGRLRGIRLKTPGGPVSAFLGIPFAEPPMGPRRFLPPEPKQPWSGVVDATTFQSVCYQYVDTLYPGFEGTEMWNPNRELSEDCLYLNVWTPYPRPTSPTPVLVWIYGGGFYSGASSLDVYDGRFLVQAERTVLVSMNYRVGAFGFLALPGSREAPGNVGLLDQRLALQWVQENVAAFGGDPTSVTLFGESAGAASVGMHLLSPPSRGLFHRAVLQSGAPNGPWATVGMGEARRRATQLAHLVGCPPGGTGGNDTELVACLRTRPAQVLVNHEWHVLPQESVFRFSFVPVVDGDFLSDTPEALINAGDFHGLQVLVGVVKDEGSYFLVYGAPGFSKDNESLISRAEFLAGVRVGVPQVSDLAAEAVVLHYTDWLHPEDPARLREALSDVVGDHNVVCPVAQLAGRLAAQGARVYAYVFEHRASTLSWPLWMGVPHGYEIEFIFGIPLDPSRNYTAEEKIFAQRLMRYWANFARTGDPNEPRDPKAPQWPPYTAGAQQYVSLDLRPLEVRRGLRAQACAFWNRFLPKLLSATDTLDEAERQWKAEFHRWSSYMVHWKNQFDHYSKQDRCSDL

SMILES | inhibition at 75 µM [%]
O=C1c2ccccc2C2=NCCc3cccc1c32 [OXO 1, 2,3-dihydro-7H-dibenzo[de,h]quinolin-7-one] | 26.2 ± 5.6
O=C1C2=C(CCCC2)C2=NCCc3cccc1c32 [OXO 13, 2,3,8,9,10,11-hexahydro-7H-dibenzo[de,h]quinolin-7-one] | 25.6 ± 5.9
C#CCN[C@@H]1CCc2ccccc21 [Rasagiline, reference compound] | 82.5 ± 4.3
